The test system of the assay is L1210 leukemia ip in BDF1 mice, survival T/C. The assay can be described thus: NCI In Vivo Anticancer Drug Screen. Data for tumor model L1210 Leukemia (intraperitoneal) in B6D2F1 (BDF1) mice. Conditions: higher = longer survival. The method, boiled down: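 Survival endpoint. Drug-treated group vs vehicle group, expressed as T divided by C. Tumor passaged by transplantation.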

[1] abbreviates: endpoint: mean survival time, dose: 100.0 mg/kg/injection, schedule: Q01DX009 (ip), vehicle: saline with Tween-80.
Setting [2] is: endpoint: mean survival time, dose: 100.0 mg/kg/injection, schedule: Q04DX002 (ip), vehicle: saline with Tween-80.
The mark [3] stands for this setting: endpoint: mean survival time, dose: 100.0 mg/kg/injection, schedule: Q04DX003 (ip), vehicle: saline with Tween-80.
Setting [4] is: endpoint: mean survival time, dose: 200.0 mg/kg/injection, schedule: Q01DX009 (ip), vehicle: saline with Tween-80.
[5] abbreviates: endpoint: mean survival time, dose: 200.0 mg/kg/injection, schedule: Q04DX002 (ip), vehicle: saline with Tween-80.
Where [6] appears, read: endpoint: mean survival time, dose: 200.0 mg/kg/injection, schedule: Q04DX003 (ip), vehicle: saline with Tween-80.
[7] abbreviates: endpoint: mean survival time, dose: 400.0 mg/kg/injection, schedule: Q01DX009 (ip), vehicle: saline with Tween-80.
Where [8] appears, read: endpoint: mean survival time, dose: 100.0 mg/kg/injection, schedule: Q04DX003 (ip), vehicle: saline.
Where [9] appears, read: endpoint: mean survival time, dose: 200.0 mg/kg/injection, schedule: Q04DX003 (ip), vehicle: saline.
The mark [10] stands for this setting: endpoint: mean survival time, dose: 400.0 mg/kg/injection, schedule: Q04DX003 (ip), vehicle: saline.
Where [11] appears, read: endpoint: mean survival time, dose: 100.0 mg/kg/injection, schedule: Q01DX001 (ip), vehicle: saline.
Setting [12] is: endpoint: mean survival time, dose: 200.0 mg/kg/injection, schedule: Q01DX001 (ip), vehicle: saline.
Where [13] appears, read: endpoint: mean survival time, dose: 400.0 mg/kg/injection, schedule: Q01DX001 (ip), vehicle: saline.

Values joined by “and” are separate entries in the source; they are usually repeats but may differ in a detail not shown here. Identical values can stand only once. Toxic doses and inconclusive results are not listed.

For `CC(C)/C=N/NC(=O)CCCCCCCCC(=O)N/N=C/C(C)C`, the T/C runs as follows: (endpoint: mean survival time, dose: 100.0 mg/kg/injection, schedule: Q01DX001 (ip), vehicle: saline with Tween-80) 97 % of control; under setting [1], 105 % of control and 106 % of control; under setting [2], 97 % of control; under setting [3], 111 % of control; (endpoint: mean survival time, dose: 200.0 mg/kg/injection, schedule: Q01DX001 (ip), vehicle: saline with Tween-80) 92 % of control; under setting [4], 100 % of control and 108 % of control. Also, the T/C runs as follows: under setting [5], 97 % of control; under setting [6], 110 % of control; (endpoint: mean survival time, dose: 400.0 mg/kg/injection, schedule: Q01DX001 (ip), vehicle: saline with Tween-80) 97 % of control; under setting [7], 93 % of control and 108 % of control; (endpoint: mean survival time, dose: 400.0 mg/kg/injection, schedule: Q04DX002 (ip), vehicle: saline with Tween-80) 94 % of control and 95 % of control; (endpoint: mean survival time, dose: 400.0 mg/kg/injection, schedule: Q04DX003 (ip), vehicle: saline with Tween-80) 101 % of control.
On to `CN(C)c1ccc(S(=O)(=O)Cl)cc1[N+](=O)[O-]`, for which the T/C runs as follows: under setting [8], 104 % of control; under setting [9], 107 % of control; under setting [10], 101 % of control.
Turning to `COC1C(O)C(C)OC(OC2C(Oc3cccc4c(O)c5c(=O)oc6ccc(C)c7c(=O)oc(c34)c5c67)OC(C)C(O)C2O)C1O` (stereo unspecified), the T/C is, setting by setting: (endpoint: mean survival time, dose: 1.25 mg/kg/injection, schedule: Q01DX009 (ip), vehicle: saline with Tween-80) 97 % of control; (endpoint: mean survival time, dose: 2.5 mg/kg/injection, schedule: Q01DX009 (ip), vehicle: saline with Tween-80) 123 % of control; (endpoint: mean survival time, dose: 5.0 mg/kg/injection, schedule: Q01DX009 (ip), vehicle: saline with Tween-80) 115 % of control; (endpoint: mean survival time, dose: 12.5 mg/kg/injection, schedule: Q01DX009 (ip), vehicle: carboxymethylcellulose (CMC)) 108 % of control; (endpoint: mean survival time, dose: 20.0 mg/kg/injection, schedule: Q01DX009 (ip), vehicle: saline with Tween-80) 166 % of control; (endpoint: mean survival time, dose: 25.0 mg/kg/injection, schedule: Q01DX009 (ip), vehicle: carboxymethylcellulose (CMC)) 108 % of control. Moreover, the T/C (endpoint: mean survival time, dose: 50.0 mg/kg/injection, schedule: Q01DX009 (ip), vehicle: carboxymethylcellulose (CMC)) was 117 % of control; the T/C under setting [1] was 121 % of control; the T/C (endpoint: median survival time, dose: 8.0 mg/kg/injection, schedule: Q04DX003 (ip), vehicle: saline with Tween-80) is 106 % of control; the T/C (endpoint: median survival time, dose: 16.0 mg/kg/injection, schedule: Q04DX003 (ip), vehicle: saline with Tween-80) was 110 % of control; the T/C (endpoint: median survival time, dose: 32.0 mg/kg/injection, schedule: Q04DX003 (ip), vehicle: saline with Tween-80) was 114 % of control; the T/C (endpoint: median survival time, dose: 64.0 mg/kg/injection, schedule: Q04DX003 (ip), vehicle: saline with Tween-80) is 114 % of control. Where the note is “endpoint: median survival time, dose: 128.0 mg/kg/injection, schedule: Q04DX003 (ip), vehicle: saline with Tween-80”, the T/C is 110 % of control.
As for `CCOC(=O)c1c(O)cc(C)[nH]c1=O`, the T/C was 102 % of control (endpoint: mean survival time, dose: 50.0 mg/kg/injection, schedule: Q01DX001 (ip), vehicle: saline); 96 % of control under setting [11]; 104 % of control under setting [12]; 104 % of control under setting [13].
Consider `CC1(C)OC2C(=O)C3COC(O3)C2O1` (stereo unspecified), for which the T/C (endpoint: mean survival time, dose: 100.0 mg/kg/injection, schedule: Q01DX001 (ip), vehicle: carboxymethylcellulose (CMC)) is 106 % of control; the T/C (endpoint: mean survival time, dose: 200.0 mg/kg/injection, schedule: Q01DX001 (ip), vehicle: carboxymethylcellulose (CMC)) is 106 % of control; the T/C (endpoint: mean survival time, dose: 400.0 mg/kg/injection, schedule: Q01DX001 (ip), vehicle: carboxymethylcellulose (CMC)) was 103 % of control.
As to `C=C(C(=O)OC)C(C(=O)OC)=C(N1CCCCC1)N1CCCCC1`, the T/C is 95 % of control under setting [2] and 95 % of control under setting [5].
In the case of `CSc1nc(Cl)nc(C(Cl)(Cl)Cl)c1Cl`, the T/C runs as follows: (endpoint: mean survival time, dose: 100.0 mg/kg/injection, schedule: Q01DX001 (ip), vehicle: Klucel (hydroxypropylcellulose) (HPC)) 89 % of control; (endpoint: mean survival time, dose: 200.0 mg/kg/injection, schedule: Q01DX001 (ip), vehicle: Klucel (hydroxypropylcellulose) (HPC)) 103 % of control; (endpoint: mean survival time, dose: 400.0 mg/kg/injection, schedule: Q01DX001 (ip), vehicle: Klucel (hydroxypropylcellulose) (HPC)) 89 % of control.
As to `C(=C(c1ccccc1)c1ccccc1)c1ccccn1`, the T/C reads like this: under setting [1], 97 % of control; under setting [3], 98 % of control; under setting [4], 100 % of control; under setting [6], 93 % of control; under setting [7], 97 % of control.
Consider `O=C(O)C1CC(Br)C(Br)CC1C(=O)Nc1cccc2ccccc12` (stereo unspecified), for which the T/C (endpoint: mean survival time, dose: 100.0 mg/kg/injection, schedule: Q04DX002 (ip), vehicle: Klucel (hydroxypropylcellulose) (HPC)) is 100 % of control; the T/C (endpoint: mean survival time, dose: 200.0 mg/kg/injection, schedule: Q04DX002 (ip), vehicle: Klucel (hydroxypropylcellulose) (HPC)) was 92 % of control; the T/C (endpoint: mean survival time, dose: 400.0 mg/kg/injection, schedule: Q04DX002 (ip), vehicle: Klucel (hydroxypropylcellulose) (HPC)) is 95 % of control.
Turning to `O=C1O/C(=C\c2ccccc2)c2ccccc21`, the T/C by setting is: under setting [11], 101 % of control; under setting [1], 94 % of control; under setting [12], 94 % of control; under setting [4], 97 % of control; under setting [13], 99 % of control; under setting [7], 94 % of control.
For `O=P(O)(O)c1ccc(N=Nc2ccc(P(=O)(O)O)cc2)cc1`, the T/C under setting [8] was 94 % of control, the T/C under setting [9] is 107 % of control and the T/C under setting [10] was 97 % of control.
Turning to `O=C(COCC(=O)N/N=C/c1ccccc1Cl)N/N=C\c1ccccc1Cl`, the T/C by setting is: (endpoint: mean survival time, dose: 100.0 mg/kg/injection, schedule: Q01DX009 (ip), vehicle: Klucel (hydroxypropylcellulose) (HPC)) 93 % of control; (endpoint: mean survival time, dose: 200.0 mg/kg/injection, schedule: Q01DX009 (ip), vehicle: Klucel (hydroxypropylcellulose) (HPC)) 95 % of control.
With `CCCC[P+](CCCC)(CCCC)Cc1ccc([N+](=O)[O-])cc1`, the T/C is 97 % of control (endpoint: mean survival time, dose: 12.5 mg/kg/injection, schedule: Q01DX001 (ip), vehicle: Klucel (hydroxypropylcellulose) (HPC)); 106 % of control (endpoint: mean survival time, dose: 12.5 mg/kg/injection, schedule: Q04DX002 (ip), vehicle: Klucel (hydroxypropylcellulose) (HPC)); 101 % of control (endpoint: mean survival time, dose: 25.0 mg/kg/injection, schedule: Q01DX001 (ip), vehicle: Klucel (hydroxypropylcellulose) (HPC)); 99 % of control (endpoint: mean survival time, dose: 25.0 mg/kg/injection, schedule: Q01DX009 (ip), vehicle: Klucel (hydroxypropylcellulose) (HPC)); 106 % of control (endpoint: mean survival time, dose: 25.0 mg/kg/injection, schedule: Q04DX002 (ip), vehicle: Klucel (hydroxypropylcellulose) (HPC)); 101 % of control (endpoint: mean survival time, dose: 50.0 mg/kg/injection, schedule: Q01DX001 (ip), vehicle: Klucel (hydroxypropylcellulose) (HPC)). Moreover, the T/C (endpoint: mean survival time, dose: 50.0 mg/kg/injection, schedule: Q04DX002 (ip), vehicle: Klucel (hydroxypropylcellulose) (HPC)) was 87 % of control.
Take `O=C(COCc1ccccc1)OCc1ccccc1`: the T/C (endpoint: mean survival time, dose: 100.0 mg/kg/injection, schedule: Q01DX009 (ip), vehicle: saline sonified) is 100 % of control; the T/C (endpoint: mean survival time, dose: 100.0 mg/kg/injection, schedule: Q04DX003 (ip), vehicle: saline sonified) is 90 % of control; the T/C under setting [8] was 98 % of control; the T/C (endpoint: mean survival time, dose: 200.0 mg/kg/injection, schedule: Q01DX009 (ip), vehicle: saline sonified) is 102 % of control; the T/C (endpoint: mean survival time, dose: 200.0 mg/kg/injection, schedule: Q04DX003 (ip), vehicle: saline sonified) was 114 % of control; the T/C under setting [9] was 94 % of control. Also, the T/C (endpoint: mean survival time, dose: 400.0 mg/kg/injection, schedule: Q01DX009 (ip), vehicle: saline sonified) was 98 % of control; the T/C (endpoint: mean survival time, dose: 400.0 mg/kg/injection, schedule: Q04DX003 (ip), vehicle: saline sonified) was 106 % of control; the T/C under setting [10] was 94 % of control.
As for `CC1(C)N=C(N)N=C(N)N1c1cccc(CN)c1`, the T/C was 101 % of control (endpoint: mean survival time, dose: 25.0 mg/kg/injection, schedule: Q01DX009 (ip), vehicle: saline); 101 % of control (endpoint: mean survival time, dose: 25.0 mg/kg/injection, schedule: Q04DX003 (ip), vehicle: saline); 102 % of control and 103 % of control (endpoint: mean survival time, dose: 50.0 mg/kg/injection, schedule: Q01DX009 (ip), vehicle: saline); 103 % of control (endpoint: mean survival time, dose: 50.0 mg/kg/injection, schedule: Q04DX003 (ip), vehicle: saline); 98 % of control and 86 % of control (endpoint: mean survival time, dose: 100.0 mg/kg/injection, schedule: Q01DX009 (ip), vehicle: saline); 102 % of control and 105 % of control under setting [8].

Values taken from PubChem BioAssay AID248 (DTP/NCI, 2004).
